# In patent US12479866B2, “Boron-containing rho kinase inhibitors” (Percipiad, Inc., priority 2019, dated 2025):
# Several values for one entry are separate records, joined by “and”; a condition that tells them apart may be missing. Identical values can stand only once. Like-named read-outs stand apart in the source and are kept apart here.
# Tests used:
# ROCK2 = ROCK2 (Homo sapiens (Human), UniProt O75116); assay: ROCK2 ADP-Glo kinase enzyme inhibition assay; assay type: biochemical
# Description: (§1) We measured ROCK and PKA kinase enzyme activity inhibition by compounds using commercially available ROCK1 (Promega Corporation, cat #V9581), ROCK2 (Promega, cat #V4045), and PKA kinase (Promega, cat #V4247) ADP-Glo™ assay kits. ADP-Glo™ Kinase Assay is a luminescent ADP detection assay that provides a homogeneous method to measure kinase activity by quantifying the amount of ADP produced during a kinase reaction. The assay is performed in two steps. First, after the kinase reaction, an equal volume of ADP-Glo™ Reagent is added to terminate the kinase reaction and deplete the remaining ATP. Second, the Kinase Detection Reagent is added to simultaneously convert ADP to ATP and allow the newly synthesized ATP to be measured using a luciferase/luciferin reaction. The light generated is measured using a luminometer. A complete protocol is included with the kits and is also available at the Promega website. The assay is briefly described below. • 1. Diluted enzyme, substrate, ATP, and compounds (inhibitors) in Kinase Buffer (40 mM Tris, 7.5, 20 mM MgCl2, 0.1 mg/ml BSA, 50 μM DTT). • 2. Added 1 μl of inhibitor, 2 μl of enzyme and 2 μl of substrate/ATP mix to the wells of 384-well low volume nonbinding assay plate A series of three-fold dilution of inhibitor was prepared and assayed for each inhibitor. • 3. Incubated at room temperature for 60 minutes. • 4. Added 5 μl of ADP-Glo™ Reagent. • 5. Incubated at room temperature for 60 minutes. • 6. Added 10 μl of Kinase Detection Reagent • 7. Incubated at room temperature for 30 minutes.
# (§2) Recorded luminescence (Integration time 1 second) using a plate-based luminometer.
# Calculated Percent Enzyme Activity: First subtract the signal of the negative control (no enzyme and no inhibitor) from each sample's signal. Then use the mean relative light units (RLU) values for the 0% kinase activity (neither inhibitor nor enzyme) and the 100% kinase activity (no compound) to calculate the other percent enzyme activities remaining in the presence of the different dilutions of inhibitor.
# Inhibitor stock solutions of 10 mM are made in DMSO and stored at −20° C. Dilutions were made in assay buffer immediately before use.
# ROCK1 = ROCK1 (Homo sapiens (Human), UniProt Q13464); assay: ROCK1 ADP-Glo kinase enzyme inhibition assay; assay type: biochemical
# Description: as §1, §2
# Calculated Percent Enzyme Activity: First subtract the signal of the negative control (no enzyme and no inhibitor) from each sample's signal. Then use the mean relative light units (RLU) values for the 0% kinase activity (neither inhibitor nor enzyme) and the 100% kinase activity (no compound) to calculate the other percent enzyme activities remaining in the presence of the different dilutions of inhibitor. […]
# PKA = PKA (Homo sapiens (Human), UniProt P17612); assay: PKA ADP-Glo kinase enzyme inhibition assay; assay type: biochemical; conditions: read-out: PKAIC50
# Description: as §1, with “Added 1 μl of inhibitor, 2 μl of enzyme and 2 μl of substrate/ATP mix to the wells of 384-well low volume nonbinding assay plate A series of three-fold dilution of inhibitor was prepared and assayed for each inhibitor. • 3. Incubated at room temperature for 60 minutes. • 4. Added 5 μl of ADP-Glo™ Reagent. • 5. Incubated at room temperature for 60 minutes. • 6. Added 10 μl of Kinase Detection Reagent • 7. Incubated at room temperature for 30 minutes.” left out
# as §2
# Calculated Percent Enzyme Activity: First subtract the signal of the negative control (no enzyme and no inhibitor) from each sample's signal. […]
# Caco-2 Permeability = assay type: in vitro ADME; conditions: human
# Description: (§3) Caco-2 Permeability. Experiment was conducted by Absorption Systems. Caco-2 cells (clone C2BBe1) were obtained from American Type Culture Collection (Manassas, VA). Cell monolayers were grown to confluence on collagen-coated, microporous membranes in 12-well assay plates. The permeability assay buffer was Hanks' balanced salt solution containing 10 mM HEPES and 15 mM glucose at a pH of 7.4. The buffer in the receiver chamber also contained 1% bovine serum albumin. The dosing solution concentration was 5 μM of test article in the assay buffer. Cell monolayers were dosed on the apical side (A-to-B) or basolateral side (B-to-A) and incubated at 37° C. with 5% CO2 in a humidified incubator. Samples were taken from the donor and receiver chambers at 120 minutes. Each determination was performed in duplicate. The flux of lucifer yellow was also measured post-experimentally for each monolayer to ensure no damage was inflicted to the cell monolayers during the flux period. […] Permeability calculations were performed as per Absorption Systems protocol, Table 23.
# Caco-2 cells = assay: Caco-2 Permeability; assay type: in vitro ADME; conditions: Caco-2
# Description: as §3
# [1] = system: MDR1-MDCK cell monolayers; assay: MDR1-MDCK Permeability; assay type: in vitro ADME; conditions: MDR1-MDCK
# Description: as §3, with “MDR1-MDCK” for “Caco-2”, “MDR1-MDCK cell” for “Caco-2 cells (clone C2BBe1) were obtained from American Type Culture Collection (Manassas, VA). Cell”, “post experimentally” for “post-experimentally”, “24.” for “23.”
# MDR1 = assay: MDR1-MDCK Permeability; assay type: in vitro ADME; conditions: dog
# Description: as §3, with “MDR1-MDCK” for “Caco-2”, “MDR1-MDCK cell” for “Caco-2 cells (clone C2BBe1) were obtained from American Type Culture Collection (Manassas, VA). Cell”, “post experimentally” for “post-experimentally”, “24.” for “23.”
# Phospho-MYPT1 Thr853 = assay: Inhibition of MYPT1 phosphorylation in human trabecular meshwork (hTM) cells, western blot
# Description: The outflow of aqueous humor across the trabecular meshwork (TM) is regulated by, among other factors, actomyosin contraction of the TM cells and altered extracellular matrix. ROCK is known to inhibit the phosphatase activity of myosin light chain phosphatase (MLCP) by phosphorylating MYPT1 at amino acids Thr696 and Thr853. […] Media with inhibitors was suctioned off, wells washed 2 times with cold PBS pH 7.4 buffer, and attached cells were scrapped off with 500 μl (T75 flasks) or 100 μl (6-well plates) SDS-PAGE sample buffer, and collected into 1.5 ml microcentrifuge tubes. • 5.
# Two days before compound addition 6-well plates were seeded at a density of 75,000 cells/well. On the day of compound addition media was replaced with 3 ml fresh media containing compounds at different concentration. Fifteen hours after compound addition cells in each well were lysed with 0.2 ml extraction buffer (SDS-PAGE sample buffer containing […] and protease inhibitors) and extracts were collected.
# Compounds (10 μM) were added to hTM cells cultured in 60 mm plates and cell extracts collected after […]. Cells were lysed with 0.2 ml lysis buffer and 20 μl extract was loaded in each lane (FIG. 7).
# primary hTM cells [2] = assay: RealTime-Glo MT cell viability assay in hTM cells; assay type: cell-based; conditions: for Cell viability compared to DMSO controls: 30 uM and 10 μm; for Cell viability: 3.33 μm
# Excerpt: (§4) Commercially available RealTime-Glo™ MT cell viability (Promega, catalog #G9712) and CellTox™ Green cytotoxicity (Promega, catalog #G8731) assays were used in assessing effect of compounds on primary hTM cell viability and cytotoxicity. The RealTime-Glo™ MT cell viability assay is a nonlytic, homogeneous, bioluminescent method that determines the number of viable cells in culture by measuring the reducing potential of cells and thus metabolism (MT). Viable cells reduce the proprietary pro-substrate to generate a substrate for NanoLuc® luciferase. This substrate diffuses from cells into the surrounding culture medium, where it is rapidly used by the NanoLuc® Enzyme to produce a luminescent signal. In a contrasting and complementary manner, CellTox™ Green cytotoxicity assay measures changes in membrane integrity that occur as a result of cell death. This assay system uses a proprietary asymmetric cyanine dye that is excluded from viable cells but preferentially stains the dead cells' DNA. The fluorescent signal produced by the dye binding to the dead-cell DNA is proportional to cytotoxicity.
# Human™ cells were cultured and maintained as described in Example 12. Fifty μl cells (600 cells) in culture media containing compound, 25 μl media with RealTime-Glo™ MT cell viability assay reagent and 25 μl media with CellTox™ Green cytotoxicity assay reagent were plated in black, clear bottom 96-well plates. Light emitted by luciferase and fluorescence emitted by dye binding to DNA (excitation 485 nm and emission 525 nm) were measured at 24 h, 48 h, and 72 h after incubation using plate based luminescence and fluorescence plate readers.
# primary hTM cells [3] = assay: CellTox Green cytotoxicity assay in hTM cells; assay type: cell-based; conditions: 24 h, 48 h, 72 h
# Excerpt: as §4, with “The fluorescent signal produced by the dye binding to the dead-cell DNA is proportional to cytotoxicity.” left out
# Human™ cells were cultured and maintained as described in Example 12. […] Light emitted by luciferase and fluorescence emitted by dye binding to DNA (excitation 485 nm and emission 525 nm) were measured at 24 h, 48 h, and 72 h after incubation using plate based luminescence and fluorescence plate readers.
# [4] = system: New Zealand White rabbits; conditions: 0.1 ml of 5 mg/ml
# Excerpt: The right eye that was not treated served as the control. […] The eyes of initial and confirmatory test animals were examined with slit lamp for ocular lesions. […] The animals were also observed for clinical signs of toxicity, morbidity and mortality.
# Solubility in saline = assay type: physicochemical
# hTM cells = assay: hTM cell morphology changes (microscopy); conditions: for hTM cell morphology: 20 hours
# HEK293 cells = assay: CellTiter-Glo Luminescent Cell Viability Assay; conditions: HEK293 cells, two days
# Description: We used CellTiter-Glo® Luminescent Cell Viability Assay (Promega, cat #G7573) to determine the number of viable cells in culture based on quantitation of the ATP present, which signals the presence of metabolically active cells. • 1. Prepared HEK293 suspension culture cells (ThermoFisher, cat #A14635) and added 50 μl cells in media (12,500 cells) to each well of a white, opaque-walled 96-well plate in triplicate. • 2. […] Incubated at 37° C. and 5% CO2 for two days. • 4. Added 100 μl of CellTiter-Glo® Reagent to each well and mix contents for 2 minutes on an orbital shaker to induce cell lysis. • 5. Recorded luminescence using a plate luminometer.
# Chain of ROCK1 (Q13464 whole entry): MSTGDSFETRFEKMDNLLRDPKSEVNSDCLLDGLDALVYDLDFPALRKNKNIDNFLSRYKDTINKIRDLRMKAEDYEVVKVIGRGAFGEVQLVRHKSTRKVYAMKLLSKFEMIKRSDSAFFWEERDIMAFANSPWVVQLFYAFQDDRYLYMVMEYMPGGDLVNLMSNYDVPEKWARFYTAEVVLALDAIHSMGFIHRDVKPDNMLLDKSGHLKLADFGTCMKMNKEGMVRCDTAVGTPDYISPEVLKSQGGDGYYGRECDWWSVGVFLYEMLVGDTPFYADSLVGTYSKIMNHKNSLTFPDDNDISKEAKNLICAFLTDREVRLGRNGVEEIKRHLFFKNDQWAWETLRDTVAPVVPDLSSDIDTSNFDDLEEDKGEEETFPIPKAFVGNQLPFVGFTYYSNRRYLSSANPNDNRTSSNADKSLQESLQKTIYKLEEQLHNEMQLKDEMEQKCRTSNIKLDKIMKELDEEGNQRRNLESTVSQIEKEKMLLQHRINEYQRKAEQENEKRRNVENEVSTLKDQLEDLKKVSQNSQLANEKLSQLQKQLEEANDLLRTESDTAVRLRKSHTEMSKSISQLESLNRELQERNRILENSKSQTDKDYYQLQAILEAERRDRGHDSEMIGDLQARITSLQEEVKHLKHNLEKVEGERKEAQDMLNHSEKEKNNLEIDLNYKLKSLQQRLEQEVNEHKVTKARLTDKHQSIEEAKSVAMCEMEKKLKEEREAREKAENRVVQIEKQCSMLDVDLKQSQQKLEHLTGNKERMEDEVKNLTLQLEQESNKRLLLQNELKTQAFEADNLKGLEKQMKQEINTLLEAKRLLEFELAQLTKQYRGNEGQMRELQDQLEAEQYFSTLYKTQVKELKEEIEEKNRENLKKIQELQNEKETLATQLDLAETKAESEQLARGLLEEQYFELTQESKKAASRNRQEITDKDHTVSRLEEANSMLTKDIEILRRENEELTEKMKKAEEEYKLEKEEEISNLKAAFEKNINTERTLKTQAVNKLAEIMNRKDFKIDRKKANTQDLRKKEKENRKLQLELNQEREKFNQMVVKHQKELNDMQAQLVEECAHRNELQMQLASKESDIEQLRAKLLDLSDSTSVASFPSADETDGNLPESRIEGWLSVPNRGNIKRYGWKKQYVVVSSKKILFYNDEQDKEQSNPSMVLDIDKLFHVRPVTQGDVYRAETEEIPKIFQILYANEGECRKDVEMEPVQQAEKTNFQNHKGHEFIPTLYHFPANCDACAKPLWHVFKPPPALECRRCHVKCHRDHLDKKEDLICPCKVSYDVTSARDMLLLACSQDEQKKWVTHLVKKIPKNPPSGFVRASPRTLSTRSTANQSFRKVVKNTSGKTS
# Chain of ROCK2 (O75116 whole entry): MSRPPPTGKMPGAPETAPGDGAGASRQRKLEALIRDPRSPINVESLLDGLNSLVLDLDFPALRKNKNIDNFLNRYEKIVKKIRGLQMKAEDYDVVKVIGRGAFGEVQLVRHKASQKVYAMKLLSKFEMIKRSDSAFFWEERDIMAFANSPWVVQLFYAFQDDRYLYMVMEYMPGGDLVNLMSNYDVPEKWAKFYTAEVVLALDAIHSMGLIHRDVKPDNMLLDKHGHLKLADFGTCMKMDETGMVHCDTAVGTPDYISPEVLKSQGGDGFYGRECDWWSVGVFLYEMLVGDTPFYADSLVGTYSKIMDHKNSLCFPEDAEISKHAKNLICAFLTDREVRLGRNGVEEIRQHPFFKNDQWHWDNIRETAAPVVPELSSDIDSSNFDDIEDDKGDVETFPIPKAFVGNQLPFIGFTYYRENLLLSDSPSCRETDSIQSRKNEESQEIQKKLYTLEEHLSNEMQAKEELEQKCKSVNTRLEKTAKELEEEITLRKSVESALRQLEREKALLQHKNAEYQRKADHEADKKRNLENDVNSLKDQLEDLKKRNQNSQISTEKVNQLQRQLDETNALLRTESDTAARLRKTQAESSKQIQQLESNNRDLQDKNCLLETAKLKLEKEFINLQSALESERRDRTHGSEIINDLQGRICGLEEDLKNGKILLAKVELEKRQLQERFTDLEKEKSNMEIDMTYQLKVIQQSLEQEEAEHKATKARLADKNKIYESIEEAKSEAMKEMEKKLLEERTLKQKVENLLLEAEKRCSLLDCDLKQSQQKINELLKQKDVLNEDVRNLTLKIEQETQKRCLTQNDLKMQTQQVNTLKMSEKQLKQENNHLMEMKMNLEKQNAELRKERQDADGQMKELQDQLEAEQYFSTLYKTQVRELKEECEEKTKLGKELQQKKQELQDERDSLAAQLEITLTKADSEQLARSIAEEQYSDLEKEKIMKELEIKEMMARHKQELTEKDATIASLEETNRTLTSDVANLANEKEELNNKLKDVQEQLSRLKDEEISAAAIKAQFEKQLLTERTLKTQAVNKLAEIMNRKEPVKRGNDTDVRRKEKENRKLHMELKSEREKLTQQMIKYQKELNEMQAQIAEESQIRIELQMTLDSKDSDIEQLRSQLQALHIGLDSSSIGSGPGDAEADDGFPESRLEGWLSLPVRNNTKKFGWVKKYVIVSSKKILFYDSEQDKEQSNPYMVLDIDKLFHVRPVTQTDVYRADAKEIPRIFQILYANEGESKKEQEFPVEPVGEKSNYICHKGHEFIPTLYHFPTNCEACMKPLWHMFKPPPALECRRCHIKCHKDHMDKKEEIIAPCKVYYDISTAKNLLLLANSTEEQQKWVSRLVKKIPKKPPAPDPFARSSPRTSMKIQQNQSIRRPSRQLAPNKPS
smiles,measurement,setting,value
Cl.Cl.NCC(C(=O)Nc1ccc2cnccc2c1)c1ccc(B(O)O)cc1 (centres unmarked) [Compound 10],IC50,"ROCK2; Exp #1, read-out: ROCK2 IC50(Exp #1)",27 nM
same,IC50,"ROCK2; Exp #2, read-out: ROCK2 IC50(Exp #2)",26 nM
same,IC50,"ROCK2; Exp #3, read-out: ROCK2 IC50(Exp #3)",26 nM and 15 nM
same,IC50,"ROCK2; average of two lots of compound 10 and compound 10.2HCl, read-out: average IC50 estimate against ROCK2",25 nM
same,IC50,"ROCK1; average of two lots of compound 10 and compound 10.2HCl, read-out: average IC50 estimate against ROCK1",84 nM
same,IC50,ROCK1; read-out: ROCK1 IC50,137 nM and 62 nM
same,IC50,PKA,52 nM
same,"efflux ratio at 120 min, 5 μM","Caco-2 Permeability; Caco-2, pH 7.4",2.58
same,"recovery at 120 min, 5 μM","Caco-2 Permeability; Caco-2, pH 7.4, A to B",108%
same,"Papp at 120 min, 5 μM","Caco-2 Permeability; Caco-2, pH 7.4, A to B, read-out: Papp Avg",0.192 ×10⁻⁶ cm/s
same,"Papp at 120 min, 5 μM","Caco-2 Permeability; Caco-2, pH 7.4, A to B, read-out: Papp R1",0.209 ×10⁻⁶ cm/s
same,"Papp at 120 min, 5 μM","Caco-2 Permeability; Caco-2, pH 7.4, A to B, read-out: Papp R2",0.176 ×10⁻⁶ cm/s
same,"recovery at 120 min, 5 μM","Caco-2 Permeability; Caco-2, pH 7.4, B to A",103%
same,"Papp at 120 min, 5 μM","Caco-2 Permeability; Caco-2, pH 7.4, B to A, read-out: Papp Avg",0.496 ×10⁻⁶ cm/s
same,"Papp at 120 min, 5 μM","Caco-2 Permeability; Caco-2, pH 7.4, B to A, read-out: Papp R1",0.565 ×10⁻⁶ cm/s
same,"Papp at 120 min, 5 μM","Caco-2 Permeability; Caco-2, pH 7.4, B to A, read-out: Papp R2",0.426 ×10⁻⁶ cm/s
same,Absorption Potential Classification,Caco-2 cells,low (Papp(A to B) < 1 × 10^−6 cm/s: low)
same,Significant Efflux,Caco-2 cells,No
same,Brain Penetration Classification,[1],low
same,"recovery at 120 min, 5 μM","MDR1; MDCK-MDR1, pH 7.4, A to B",95.5%
same,"Papp at 120 min, 5 μM","MDR1; MDCK-MDR1, pH 7.4, A to B, read-out: Papp Avg",< 0.0566 ×10⁻⁶ cm/s
same,"Papp at 120 min, 5 μM","MDR1; MDCK-MDR1, pH 7.4, A to B, read-out: Papp R1",< 0.0566 ×10⁻⁶ cm/s
same,"Papp at 120 min, 5 μM","MDR1; MDCK-MDR1, pH 7.4, A to B, read-out: Papp R2",< 0.0566 ×10⁻⁶ cm/s
same,"recovery at 120 min, 5 μM","MDR1; MDCK-MDR1, pH 7.4, B to A",91.1%
same,"Papp at 120 min, 5 μM","MDR1; MDCK-MDR1, pH 7.4, B to A, read-out: Papp Avg",< 0.0772 ×10⁻⁶ cm/s
same,"Papp at 120 min, 5 μM","MDR1; MDCK-MDR1, pH 7.4, B to A, read-out: Papp R2",< 0.0772 ×10⁻⁶ cm/s
Cc1ccc(C(=O)OCc2ccc([C@@H](CN)C(=O)Nc3ccc4cnccc4c3)cc2)c(C)c1.Cl.Cl [Netarsudil.2HCl],Inhibition of MYPT1 Thr853 phosphorylation (western blot),Phospho-MYPT1 Thr853; 2.5 μM inhibitors,inhibited phosphorylation of MYPT1
same,Inhibition of MYPT1 Thr853 phosphorylation (western blot),"Phospho-MYPT1 Thr853; 10 μM inhibitors, 7 hours",completely inhibited MYPT1 phosphorylation
same,Amount of protein in lane (toxicity),"Phospho-MYPT1 Thr853; 10 μM, fifteen hours",much lower amount of protein because of toxicity
same,reduction in viability,primary hTM cells [2]; 1.11 μM,10%
same,Cell viability compared to DMSO controls,primary hTM cells [2]; within 24 h,< 2%
same,Cell viability compared to DMSO controls,primary hTM cells [2]; within 48 h,< 0.1%
same,Cell viability,primary hTM cells [2]; 24 h,53%
same,Cell viability,primary hTM cells [2]; 48 h,15%
same,Cell viability,primary hTM cells [2]; 72 h,9%
same,Cytotoxicity / membrane integrity (in words),primary hTM cells [3],concentration dependent
same,eye irritation classification,[4],irritating
same,mean score Iris,[4],2.0
same,mean score conjunctival oedema (chemosis),[4],4.0
same,mean score conjunctival redness,[4],3.0
same,mean score corneal opacity,[4],3.0
same,solubility in saline,Solubility in saline,≤ 5000 µg/mL
same,hTM cell morphology,hTM cells; 10 μM,became small and round
same,hTM cell morphology,hTM cells; […] and 3.3 μM,started contracting and detaching from plate
same,cellular morphological changes,"hTM cells; hTM cells, 30, 10, 3.33, or 1.11 μM, 24 hours",affected cell morphology starting at 1.11 μM showing cell contraction and becoming round and small at 10 μM
same,reduction in ATP levels,HEK293 cells; 2.5 μM,80%
same,reduction in ATP levels,HEK293 cells; 25 μM,96%
